{"source": "patent EP0279150A1", "about": "“5-Oxy-substituted-3-aminochroman compounds, processes for their preparation, pharmaceutical compositions containing them and methods of treatment therewith” (ASTRA LAKEMEDEL AKTIEBOLAG, priority 1986, dated 1988)", "key": {"[1]": {"molecular_target": "5-HT₁", "experiment": "Receptor binding assay, ³H-5-HT", "conditions": "³H-5-HT (5 nM) binding, rat brain (striatal) membranes, 10 minutes at 37°C; read-out: IC₅₀", "description": "(§1) The method of Peroulka & Snyder (Mol.Pharmacol. 16, 687-699, 1979) was used. Male Sprague-Dawley rats weighing 150-200 g were decapitated, and their brains were rapidly removed. The striata were dissected, pooled and homogenized in 50 mM Tris-HCl buffer (pH 7.6). The membrane fraction was collected by centrifugation (48 000 g for ten minutes), washed once with the buffer, and resuspended in 50 mM Tris HCl (pH 7.6) containing 0.1% ascorbic acid, 10 mM paragyline, 120 mM NaCl, 5 mM KCl, 2 mM CaCl₂ and 1 mM MgCl₂. The suspension was preincubated at 37°C for 10 minutes and then kept on ice until use.\n(§2) The assays have been carried out using a cell harvester equipment. The incubations were made in quadruplicate, each well containing membrane suspension, ³H-spiperone (0.4 nM) or ³H-5-HT (5 nM) and the test compound in a final volume of 0.5 ml. After incubation for 10 minutes at 37°C, the contents of the wells were rapidly filtered and washed on Whatman GF/B filters using the Cell harvester. The specific binding was defined as the difference of radioligand bound in the presence and in the absence of a specific displacer (d-LSD, lµM and 5-HT, 10 µM for ³4-spiperone and ³H-5-HT, respectively). The test results are expressed as IC₅₀. The IC₅₀ value is given in nM, indicates the concentration of the test substance which reduces the amount of specifically bound radioligand by 50%.."}, "[2]": {"molecular_target": "T1, 5-HT₂ (Rattus norvegicus, UniProt P14842)", "T1 construct": "from tissue", "T1 sequence (P14842 whole entry)": "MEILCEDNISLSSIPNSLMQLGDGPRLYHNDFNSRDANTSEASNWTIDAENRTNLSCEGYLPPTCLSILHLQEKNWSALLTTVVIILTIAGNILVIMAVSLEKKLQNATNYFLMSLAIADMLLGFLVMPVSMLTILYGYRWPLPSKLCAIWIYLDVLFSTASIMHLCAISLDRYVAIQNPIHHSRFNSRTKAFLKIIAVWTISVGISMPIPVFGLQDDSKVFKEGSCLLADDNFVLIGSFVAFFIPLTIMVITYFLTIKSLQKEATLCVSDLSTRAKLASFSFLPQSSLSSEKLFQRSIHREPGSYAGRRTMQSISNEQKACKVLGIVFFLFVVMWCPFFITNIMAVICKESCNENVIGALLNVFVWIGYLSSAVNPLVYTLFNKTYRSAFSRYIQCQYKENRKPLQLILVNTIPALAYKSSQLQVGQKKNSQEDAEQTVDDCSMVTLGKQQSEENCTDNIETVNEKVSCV", "experiment": "Receptor binding assay, ³H-Ketanserin", "conditions": "³H-Ketanserin binding, rat brain membranes"}, "[3]": {"molecular_target": "T2, Dopamine-D₂ (Rattus norvegicus, UniProt P61169)", "T2 construct": "The striata were dissected, pooled and homogenized in 50 mM Tris-HCl buffer (pH 7.6); from tissue; host or cells: rat striatum membrane fraction", "T2 sequence (P61169 whole entry)": "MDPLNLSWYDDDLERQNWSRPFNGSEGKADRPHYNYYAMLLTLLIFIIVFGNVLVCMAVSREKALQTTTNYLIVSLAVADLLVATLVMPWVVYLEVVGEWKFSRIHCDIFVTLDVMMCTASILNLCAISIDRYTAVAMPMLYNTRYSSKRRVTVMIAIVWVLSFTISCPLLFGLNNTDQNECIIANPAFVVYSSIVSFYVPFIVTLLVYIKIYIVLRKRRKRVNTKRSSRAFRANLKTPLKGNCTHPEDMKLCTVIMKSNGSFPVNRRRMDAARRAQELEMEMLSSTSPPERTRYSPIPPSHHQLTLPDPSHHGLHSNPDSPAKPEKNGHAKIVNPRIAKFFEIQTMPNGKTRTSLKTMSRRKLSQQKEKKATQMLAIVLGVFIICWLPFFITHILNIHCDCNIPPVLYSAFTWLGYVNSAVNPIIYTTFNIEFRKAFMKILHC", "experiment": "Receptor binding assay, ³H-spiroperidol", "conditions": "³H-spiroperidol binding, rat brain membranes", "description": "as §1, §2"}}}
{"smiles": "CCCN(CCC)C1COc2cccc(O)c2C1", "note": "(stereo not drawn) [3-di-propylamino-5-hydroxychroman, 3-dipropylamino-5-hydroxychroman]", "values": [{"measurement": "IC50", "setting": "[1]", "result": 83, "unit": "nM"}, {"measurement": "activity in ³H-Ketanserin (5-HT₂) receptor binding", "setting": "[2]", "result": "inactive"}, {"measurement": "activity in ³H-spiroperidol (Dopamine-D₂) receptor binding", "setting": "[3]", "result": "inactive"}]}
